Experimental findings from patent publication US7625927B2, “Method of treating glaucoma” (Alcon Research, Ltd., priority 2006, dated 2009) are described below.

The data set deals with cultured adult rat retinal ganglion cells (RGCs). In words: Glutamate-induced toxicity in cultured adult rat retinal ganglion cells (RGC survival, Thy-1-positive cell count). The conditions noted are these: Compound at 1 μM, 30 min pre-treatment, then 100 μM glutamate for 3 days; Thy-1-positive healthy cells counted; 70% of RGCs survived with glutamate alone. The class given is cell-based. The protocol:
Adult Sprague-Dawley rats were euthanized by CO2 asphyxiation. Their eyes were enucleated and the retinas isolated. Retinal cells were treated with of papain solution for 25 min at 37° C., then washed 3 times with 5 mL RGC culture medium (Neurobasal medium with various nutrient supplements+1% fetal calf serum). Retinal cells were dispersed by trituration. Cell suspension was placed onto poly-D-lysine- and laminin-coated 8-well chambered culture slides. The cells were then cultured in 95% air/5% CO2 at 37° C.
For glutamate-induced toxicity studies, cells were pre-treated with vehicle or the indicated compounds for 30 minutes, followed by 100 μM glutamate for 3 days. At the end of the incubation period, the cells were fixed and labeled for Thy-1, a RGC marker, by immunocytochemistry. Cell survival was quantified by manually counting Thy-1-positive healthy cells in each well.

Molecules are shown by their SMILES.

For the compound `COC(=O)CNC(=O)c1ncccc1O` [Compound 1], the “protection against glutamate-induced cytotoxicity (RGC survival)” value is recorded as “protective against this insult”.
